Data: patent US20260265216A1, “NOVEL THIOREDOXIN REDUCTASE INHIBITORS” (GENEXPLAIN GMBH, priority 2021, published 2026)

How the values were obtained:
[1] = system: cancer cells; test: Oxidative stress measurement (DCFH-DA, ROS); format: cell-based
Description: Cells were treated with compounds and incubated 30 min with 10 μM DCF-DA in serum free medium. Afterward, cells were trypsinized, washed with PBS and fluorescence was analyzed by a FACSCalibur flow cytometer (BD Biosciences) using FL1-H channel.
To get insight into the mechanism of the anti-tumor activity of 1d*HCl, we tested the level of oxidative stress upon treatment. We measured the induction of reactive oxygen species (ROS), using 2′-7′-Dichlorodihydrofluorescein diacetate (DCFH-DA)-based assay. […] After 8 h of treatment, the induction of reactive oxygen species (ROS) was much higher.

[2] = system: B16 melanoma; test: B16 melanoma mouse model; format: in vivo, C57BL/6 mice; details: 10 mg/kg i.p. every other day for 9 days, day 8 and day 9
Description: For the B16 melanoma mouse model, 6-weeks-old female C57BL/6 mice were injected subcutaneously with 1×10^6 B16 cells. When the tumors reached 80-120 mm^3, 10 mg/kg of 1d*HCl were administered intraperitoneally every other day for 9 days (days 1, 3, 5, 7, 9). Tumor volume was measured by caliper three times per week, and the volume was calculated based on the formula (in ml): L/10*W/10*W/10*0.44 (L-length, W=width of tumor). Mice were sacrificed when tumors reached 2 cm^3 or upon bleeding.
We tested the anti-tumor activity of 1d*HCl using allogenic model of B16 mice. We inoculated mice with B16 melanoma cells. When the tumors reached 100 mm^3, we treated them with i.p. injection of 1d*HCl, 10 mg/kg every other day for 9 days. […] The differences in tumor volume between untreated control mice and animals treated with 1d*HCl are all statistically significant. Thus, 1d*HCl has in vivo anti-tumor activity in this animal tumor model.

[3] = system: recombinant purified GR; test: GR recombinant enzyme assay in vitro; format: biochemical
Description: (§1) TrxR1 enzyme was recombinantly produced with high Sec contents in a specific Release Factor 1-depleted E. coli strain and purified as previously described (Arnér E S J, Holmgren A, in Current Protocols in Toxicology, Maines M, Costa L, Reed D, Sassa S, Eds. (John Wiley & Sons, Inc., New York, 2000), pp. 7.4.1-7.4.14). TrxR1 and GSR (Sigma) recombinant enzyme assays were performed in a reaction buffer containing 50 mM Tris pH 7.5 with 2 mM EDTA and 0.1 mg/mL bovine serum albumin as described previously (Arnér E S J, Holmgren A, in Current Protocols in Toxicology, Maines M, Costa L, Reed D, Sassa S, Eds. (John Wiley & Sons, Inc., New York, 2000), pp. 7.4.1-7.4.14). Briefly, assays were performed in triplicate using 96-well plates, with activity inferred from absorbance changes using a Spectra Max plate reader. Results of recombinant enzyme assays were normalized to DMSO and to no enzyme controls.
(§2) We used recombinant purified TrxR1 and GR in an in vitro assay as described in methods section.

[4] = system: cancer cells grown in hypoxia; test: Growth suppression under hypoxia versus normoxia; format: cell-based; details: hypoxia vs normoxia
Description: Breast, colon, ovarian, cervical, liver and lung carcinoma cell lines were grown in DMEM supplemented with 10% FBS, and antibiotics were cultured at 37° C. and 5% CO2. Osteosarcoma, melanoma, lymphoma, neuroblastoma and leukemia cell lines were cultured in RPMI 1640 with 10% FBS and antibiotics. An oxygen concentration of 0.3% was obtained by flushing a sealed box containing the cells with premixed gas composed of 95% nitrogen (N2) and 5% CO2 (AGA AB, Sweden). To obtain an oxygen concentration of 0.05%, the cells were flushed with the premixed gas continuously throughout the experiment.
Hypoxic tumors are often the most aggressive and resistant to chemotherapy. Therefore, we tested how cells in hypoxia will respond to the treatment by 1d*HCl. It has been shown that 1d*HCl is even more efficient in hypoxia condition. […] Thus, the compounds of the present invention are of great interest for the treatment of hypoxic solid tumors.

[5] = target: T1, recombinant purified TrxR1 (Homo sapiens, UniProt Q16881); test: TrxR1 enzymatic activity measurement in vitro; format: biochemical; details: recombinant purified enzyme in vitro
T1 construct: made in house; host or cells: Release Factor 1-depleted E. coli strain
T1 sequence (Q16881 1-499 isoform Q16881-5): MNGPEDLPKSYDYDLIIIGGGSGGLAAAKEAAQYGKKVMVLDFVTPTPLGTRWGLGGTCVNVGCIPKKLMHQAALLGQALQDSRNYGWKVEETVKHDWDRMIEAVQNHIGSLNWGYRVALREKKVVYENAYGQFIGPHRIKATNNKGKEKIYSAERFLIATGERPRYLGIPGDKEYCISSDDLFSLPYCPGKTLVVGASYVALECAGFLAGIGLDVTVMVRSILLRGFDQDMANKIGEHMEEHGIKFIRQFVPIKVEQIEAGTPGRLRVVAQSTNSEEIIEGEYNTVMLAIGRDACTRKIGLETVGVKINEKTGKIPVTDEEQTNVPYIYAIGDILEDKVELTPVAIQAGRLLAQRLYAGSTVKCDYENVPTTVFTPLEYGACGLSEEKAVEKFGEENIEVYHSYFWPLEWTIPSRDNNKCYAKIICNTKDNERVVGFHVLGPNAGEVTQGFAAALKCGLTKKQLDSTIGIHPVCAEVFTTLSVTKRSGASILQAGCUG
Description: as §1, §2

SMILES: Cl.N#Cc1c(-c2cccnc2)[n+]([O-])c2cc(F)c(N3CCOCC3)cc2[n+]1[O-] [Compound 1d*HCl, 6-Fluoro-7-(morpholin-4-yl)-3-(pyridin-3-yl)quinoxaline-2-carbonitrile-1,4-dioxide hydrochloride]
- induction of reactive oxygen species (DCF fluorescence) ([1]; 2 h after treatment): significant increase in DCF fluorescence
- induction of reactive oxygen species (ROS) ([1]; after 8 h of treatment): much higher
- tumor volume compared to vehicle-treated mice [2]: lower volume of tumors
- inhibition of GR activity [3]: did not inhibit GR activity
- IC50 in hypoxia lower than that in normoxia [4]: 2.3 fold
- inhibition of enzymatic activity of TrxR1 [5]: efficiently inhibited the enzymatic activity of TrxR1 in a dose- and time-dependent manner
